The values below are quoted from earlier work in patent US11013844B2, “Treatment device for plasma virus inactivation” (City of Hope, priority 2014, dated 2021).

The conditions of the data set: within 6 days.

For the molecule `CN(C)c1ccc2nc3ccc(N(C)C)cc3[s+]c2c1.[Cl-]` [methylene blue, 3,7-bis(dimethylamino)phenothiazin-5-ium chloride], the “methylene blue drained through urine” value is 74%. In addition, under “the other is white methylene blue”, the “part drained through urine in the original form” value is on record as 22%.
